According to ChEMBL document CHEMBL4311955, “HIV-1 Protease Inhibitors Incorporating Stereochemically Defined P2' Ligands To Optimize Hydrogen Bonding in the Substrate Envelope” (J Med Chem, 2019):

Legend:
[1] = test system: Human immunodeficiency virus 1; assay: Antiviral activity against multidrug-resistant HIV1 NL4-3 KY24 infected in human TZM-bl cells preincubated for 18 hrs followed by viral infection and measured after 48 hrs by luciferase reporter gene assay; format: functional, organism-based; conditions: Human immunodeficiency virus 1, NL4-3 KY24, TZM-bl
[2] = test system: Human immunodeficiency virus 1; assay: Antiviral activity against wild-type HIV1 NL4-3 infected in human TZM-bl cells preincubated for 18 hrs followed by viral infection and measured after 48 hrs by luciferase reporter gene assay; format: functional, organism-based; conditions: Human immunodeficiency virus 1, NL4-3, TZM-bl
[3] = test system: Human immunodeficiency virus 1; assay: Antiviral activity against multidrug-resistant HIV1 NL4-3 SLK19 infected in human TZM-bl cells preincubated for 18 hrs followed by viral infection and measured after 48 hrs by luciferase reporter gene assay; format: functional, organism-based; conditions: Human immunodeficiency virus 1, NL4-3 SLK19, TZM-bl
[4] = test system: Human immunodeficiency virus 1; assay: Antiviral activity against multidrug-resistant HIV1 NL4-3 VSL20 infected in human TZM-bl cells preincubated for 18 hrs followed by viral infection and measured after 48 hrs by luciferase reporter gene assay; format: functional, organism-based; conditions: Human immunodeficiency virus 1, NL4-3 VSL20, TZM-bl
Protease [5] = molecular target: Protease (Human immunodeficiency virus 1, UniProt Q9YQ12, A71V/I50V); assay: Inhibition of HIV1 NL4-3 protease I50V/A71V mutant expressed in Escherichia coli TAP-106 cells using EDANS/DABCYL-labelled 10-amino acid containing natural MA/CA cleavage site as substrate preincubated for 1 hr followed by substrate addition and measured for 60 mins by FRET assay
Chain of Protease (Human immunodeficiency virus 1, UniProt Q9YQ12, A71V/I50V) (Q9YQ12 entry or part of it A71V/I50V): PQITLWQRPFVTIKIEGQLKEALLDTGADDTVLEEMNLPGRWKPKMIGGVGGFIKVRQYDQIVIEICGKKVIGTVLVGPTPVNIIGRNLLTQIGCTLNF

[6] = Selectivity ratio of EC50 for antiviral activity against multidrug-resistant HIV1 NL4-3 SLK19 infected in human TZM-bl cells to EC50 for antiviral activity against wild-type HIV1 NL4-3 infected in human TZM-bl cells; format: functional
[7] = Selectivity ratio of EC50 for antiviral activity against multidrug-resistant HIV1 NL4-3 KY24 infected in human TZM-bl cells to EC50 for antiviral activity against wild-type HIV1 NL4-3 infected in human TZM-bl cells; format: functional
Protease [8] = molecular target: Protease (Human immunodeficiency virus 1, UniProt Q9YQ12, I84V); assay: Inhibition of HIV1 NL4-3 protease I84V mutant expressed in Escherichia coli TAP-106 cells using EDANS/DABCYL-labelled 10-amino acid containing natural MA/CA cleavage site as substrate preincubated for 1 hr followed by substrate addition and measured for 60 mins by FRET assay
Chain of Protease (Human immunodeficiency virus 1, UniProt Q9YQ12, I84V) (Q9YQ12 entry or part of it I84V): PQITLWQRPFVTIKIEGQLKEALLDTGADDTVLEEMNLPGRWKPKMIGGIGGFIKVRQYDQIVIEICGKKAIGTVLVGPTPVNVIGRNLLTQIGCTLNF

[9] = Selectivity ratio of EC50 for antiviral activity against multidrug-resistant HIV1 NL4-3 VSL20 infected in human TZM-bl cells to EC50 for antiviral activity against wild-type HIV1 NL4-3 infected in human TZM-bl cells; format: functional
[10] = test system: Human immunodeficiency virus 1; assay: Potency index, ratio of darunavir EC50 to test compound EC50 for antiviral activity against multidrug-resistant HIV1 NL4-3 KY24 infected in human TZM-bl cells; format: functional

SMILES | EC50 [1] [nM] | EC50 [2] [nM] | EC50 [3] [nM] | EC50 [4] [nM] | Ki (Protease [5]) [nM] | Ratio EC50 [6] | Ratio EC50 [7] | Ki (Protease [8]) [nM] | Ratio EC50 [9] | Ratio EC50 [10]
CCC(CC)CN(C[C@@H](O)[C@H](Cc1ccccc1)NC(=O)O[C@H]1CO[C@H]2OCC[C@H]21)S(=O)(=O)c1ccc([C@@H](C)O)cc1 | 345 | 5.1 | 32 | 420 |  |  |  |  |  | 
CC[C@H](C)CN(C[C@@H](O)[C@H](Cc1ccccc1)NC(=O)O[C@H]1CO[C@H]2OCC[C@H]21)S(=O)(=O)c1ccc([C@@H](C)O)cc1 | 342 | 4.2 | 91 | 291 | 0.132 | 22 | 81 | 0.095 | 69 | 
CCC(CC)CN(C[C@@H](O)[C@H](Cc1ccccc1)NC(=O)O[C@H]1CO[C@H]2OCC[C@H]21)S(=O)(=O)c1ccc(CO)cc1 | 495 | 4.2 | 36 | 426 | 0.055 | 9 | 118 | 0.005 | 101 | 2
CC[C@H](C)CN(C[C@@H](O)[C@H](Cc1ccccc1)NC(=O)O[C@H]1CO[C@H]2OCC[C@H]21)S(=O)(=O)c1ccc([C@@H](O)CO)cc1 |  | 80 |  |  |  |  |  | 0.216 |  | 
CCC(CC)CN(C[C@@H](O)[C@H](Cc1ccccc1)NC(=O)O[C@H]1CO[C@H]2OCC[C@H]21)S(=O)(=O)c1ccc([C@@H](O)CO)cc1 | 507 | 40 | 116 | 100 | 0.074 | 3 | 13 | 0.057 | 3 | 
CC(C)CN(C[C@@H](O)[C@H](Cc1ccccc1)NC(=O)O[C@H]1CO[C@H]2OCC[C@H]21)S(=O)(=O)c1ccc([C@H](O)CO)cc1 |  | 189 |  |  |  |  |  | 0.283 |  | 
CC(C)CN(C[C@@H](O)[C@H](Cc1ccccc1)NC(=O)O[C@H]1CO[C@H]2OCC[C@H]21)S(=O)(=O)c1ccc([C@@H](C)O)cc1 | 360 | 7.5 | 100 | 148 |  |  |  |  |  | 
CC[C@H](C)CN(C[C@@H](O)[C@H](Cc1ccccc1)NC(=O)O[C@H]1CO[C@H]2OCC[C@H]21)S(=O)(=O)c1ccc([C@H](C)O)cc1 | 490 | 4.6 | 49 | 281 | 0.093 | 11 | 107 | 0.111 | 61 | 
CC[C@H](C)CN(C[C@@H](O)[C@H](Cc1ccccc1)NC(=O)O[C@H]1CO[C@H]2OCC[C@H]21)S(=O)(=O)c1ccc(CO)cc1 | 1090 | 5.7 | 52 | 310 | 0.08 | 9 | 191 | 0.01 | 54 | 
CC[C@H](C)CN(C[C@@H](O)[C@H](Cc1ccccc1)NC(=O)O[C@H]1CO[C@H]2OCC[C@H]21)S(=O)(=O)c1ccc([C@H](O)CO)cc1 |  | 92 |  |  |  |  |  | 0.504 |  | 
CCC(CC)CN(C[C@@H](O)[C@H](Cc1ccccc1)NC(=O)O[C@H]1CO[C@H]2OCC[C@H]21)S(=O)(=O)c1ccc([C@H](O)CO)cc1 | 1150 | 41 | 151 | 417 | 0.22 | 4 | 28 | 0.134 | 10 | 
CCC(CC)CN(C[C@@H](O)[C@H](Cc1ccccc1)NC(=O)O[C@H]1CO[C@H]2OCC[C@H]21)S(=O)(=O)c1ccc([C@H](C)O)cc1 | 196 | 4.4 | 26 | 112 |  |  |  |  |  | 
CC(C)CN(C[C@@H](O)[C@H](Cc1ccccc1)NC(=O)O[C@H]1CO[C@H]2OCC[C@H]21)S(=O)(=O)c1ccc([C@@H](O)CO)cc1 |  | 176 |  |  | 0.09 |  |  | 0.098 |  | 
CC(C)CN(C[C@@H](O)[C@H](Cc1ccccc1)NC(=O)O[C@H]1CO[C@H]2OCC[C@H]21)S(=O)(=O)c1ccc([C@H](C)O)cc1 | 352 | 4.7 | 31 | 117 |  |  |  |  |  | 
